One experiment deals with right atrial muscle. As to the kind of experiment: Active potential duration (APD90) of isolated right atrial muscle under electrical stimulation. It is filed as cell-based, beagle. The note with it: 90 minutes after adding. The method, then:
A beagle was used in the experimental test. Its right atrial. muscle was surgically extracted, and a sample was fixed with pins within an experimental vessel which is perfused with Tyrode liquid (10 ml/min). Using an electrical stimulator, the atrial muscle was stimulated by a voltage two times greater than that of generating an active potential, and rectangular waves having pulse. width of 2 msec in a frequency of 2 Hz, and the generated active potential was measured by a glass microelectrode inserted into the cells. Compound 1 was added into the experimental vessel with condensations of 0.3 μM and 1 μM. At 90 minutes before and after adding the compound, the sample was excited with various excitation frequencies, and each active potential was recorded to. determine the duration (90% recovery time; APD90).

The subject of experiment [1] is atrial fibrillation induced by means of electrical stimulation. Put plainly: Atrial fibrillation induced by electrical stimulation in chronically paced right atrium. The class given is in vivo, hybrid of a labrador and beagle. The text has this: In the experimental test, a hybrid of a labrador and beagle was used. An electrode for electrical excitation was embedded in the right atrium. From a week after the operation, the right atrium was subjected to a continuous pacing at an excitation frequency of 400 or 600 bpm by an external pacemaker. Further, for 31 day, the right atrium was subjected to a pacing giving a burst excitation (10 mA,50 Hz,1 sec) 5 days a week and several hours a day. Compound 1 was continuously injected into forearm vein (0.3mg/kg/min×2 min+0.03 mg/kg/min). At 20 minutes before and after administrating, the excitation current (50 Hz, 1 sec) was increased from 3 mA to 10 mA in increments of 0.5 mA to determine each atrial fibrillation threshold (AFT). Then, the atrial fibrillation duration (AF duration) and the interval (FF interval) of atrial fibrillation waves, which were generated by the excitation current of 10 mA, were measured. In FIG. 1, the mean value of the AF duration before administration was 35.1±9.0 sec, and the mean value after administration was 12.1±1.9 sec. In FIG. 2, the mean value of the FF interval before administration was 51.3±1.7 msec, and the mean value after administration was 61.7±1.8 msec.

The source of these data is patent US6506745B1, “Medicinal compositions for treatment of atrial fibrillation” (Noboru Kaneko, priority 1998, dated 2003).

With `COc1ccc2c(c1)CN(C(=O)CCN1CCC(Cc3ccccc3)CC1)CCS2` [Compound 1, 4-[3-(4-benzylpiperidine-1-yl)propionyl]-7-methoxy-2,3,4,5-tetrahydro-1,4-benzothiazepine], the “duration (APD90) change after addition” value with right atrial muscle (0.3 μM, excitation frequency 0.67 Hz) stood at 106.0 ± 2.01%; with right atrial muscle (0.3 μM, excitation frequency 1 Hz) it was 110.1 ± 2.75%; in the experiment on right atrial muscle (0.3 μM, excitation frequency 2 Hz) it was 113.0 ± 1.48%; in the experiment on right atrial muscle (0.3 μM, excitation frequency 3.33 Hz), 111.5 ± 10.52%; with right atrial muscle (1 μM, excitation frequency 0.67 Hz), 112.9 ± 6.47%; with right atrial muscle (1 μM, excitation frequency 1 Hz) it was 111.3 ± 5.34%. Further, the “duration (APD90) change after addition” value in the experiment with right atrial muscle (1 μM, excitation frequency 2 Hz) is 118.1 ± 2.88%; in the experiment on right atrial muscle (1 μM, excitation frequency 3.33 Hz), 124.7 ± 9.40%. The “atrial fibrillation duration (AF duration), mean value after administration” value in experiment [1] (i.v. 0.3 mg/kg/min x 2 min + 0.03 mg/kg/min, 20 minutes after administrating, excitation current 10 mA, before administration 35.1±9.0 sec) is 12.1 ± 1.9 s. In experiment [1] (i.v. 0.3 mg/kg/min x 2 min + 0.03 mg/kg/min, 20 minutes after administrating, excitation current 10 mA, before administration 51.3±1.7 msec), the “interval of atrial fibrillation waves (FF interval), mean value after administration” value came to 61.7 ± 1.8 ms. The “atrial fibrillation threshold (AFT) after administration” value in experiment [1] (i.v. 0.3 mg/kg/min x 2 min + 0.03 mg/kg/min, 20 minutes after administrating, increased from 7 mA before) was found to be 10 mA. The “extension of FF interval after administration” value in experiment [1] (i.v. infusion, excitation current 10 mA, FIG. 2) was “about 20%”.
